# Patent US5206223A, “Method for inhibiting heparanase activity” (Yeda Research and Development Co. Ltd., priority 1986, dated 1993)
# Tests used:
# DTH reaction = experiment: Adoptively transferred DTH to OX: ear swelling and 51Cr I-LNC migration to the ear; format: in vivo, mice; details: for DTH ear swelling (FIG. 6 left): I-LNC transferred intravenously, 24 h
# Description: I-LNC were obtained from OX sensitized mice (groups A-C) and naive LNC from unsensitized mice (group D). The LNC were transferred intravenously to naive recipients that were treated (groups B-C) or untreated (groups A,D) with heparin (5 μg or 20 μg) injected 18 h and 1 h prior to cell transfer and 20 h after cell transfer. DTH ear swelling was elicited by OX at the time of cell transfer and measured 24 h later.
# Right: Heparin inhibits cell migration to DTH challenge site. The experiment was done as described in FIG. 6 (left), except that I-LNC were radiolabeled with ^51 Cr prior to cell transfer into naive recipient mice. The accumulation of I-LNC in the OX challenged ears is indicated as the ^51 Cr (cpm/ear).
# Mice were sensitized to 4-ethoxymethylene-2-phenyl oxazolone (OX) by painting their skins twice at 5 day intervals with about 0.1 ml of 3% OX in a vehicle of 4:1 acetone:olive oil (by volume). Their immunized draining lymph node cells (I-LNC) were then transfered (5×10^7) to recipient mice intravenously. The ability of the I-LNC to reach the site of antigen and produce a DTH reaction was assayed by challenging the recipient mice 1 hr after I-LNC transfer with 0.02 ml of 0.5% OX painted on the ear. DTH was ascertained by measuring the thickness of the ears 24 hrs later with an engineers micrometer.
# The ability of the transfered I-LNC to reach the ears was tested by labeling the I-LNC before transfer with radioactive ^51 Cr (10^7 cells/ml incubated with 0.1 mCi ^51 Cr sodium chromate and washed) and measuring the amount cpm reaching the ears at the time of DTH.
# renal allograft = details: subanticoagulant s.c. doses, 5000 U daily; cited from earlier work
# heparanase [1] = experiment: Heparanase activity of I-LNC from heparin-treated OX-immunized mice; details: 5 μg per injection in vivo, I-LNC incubated 48 h with labeled ECM
# Description: Mice were immunized with OX on days 0 and 5. Some of the mice were treated with heparin (5 μg or 25 μg per injection) 18 h before and 2, 10 and 20 h after the day 5 immunization with OX. On day 6, the I-LNC were removed and tested for heparanase activity by incubation for 48 h with labeled ECM. Heparan sulfate degradation products are shown for I-LNC from the following groups of mice: No heparin; 25 μg heparin X; 5 μg heparin-0. The LNC of control mice not immunized to OX had no heparanase activity (not shown).
# To learn if these effects were associated with inhibition of endogenous heparanase, we treated mice with high (25 μg) or low (5 μg) doses of heparin, sensitized them to OX and tested their I-LNC for heparanase activity in vitro. […] Thus, treatment with 5 μg of heparin in vivo caused a substantial decrease of enzyme activity in sensitized lymphocytes.
# adjuvant arthritis [2] = details: 1000 U/rat; cited from earlier work
# lymphocytes = details: 17-35 mg/kg/rat; cited from earlier work
# [3] = Partial thromboplastin time in human volunteers; format: in vivo; details: 3 mg (500 units) per day
# Description: The effective dose of heparin, 3 mg (500 units) per day, was computed from the optimal dose per weight in mice and rats and corrected for surface area. […] (not shown).
# skin allografts = experiment: Skin allograft survival (SJL/J skin on (BALB/c×C57BL/6)F1 mice); format: in vivo; details: 0.05 mg/kg daily
# Description: FIG. 1. Treatment with heparin (0.05 mg/kg) prevents rejection of skin allografts. Mice of hybrid strain (BALB/c×C57BL/6)F1 were grafted with skin from allogeneic SJL/J mice. The mice (20 per group) were treated daily with subcutaneous injections of saline (squares) or with heparin ("Leo", 0.05 mg/kg; diamonds) and scored for skin graft survival. Median survival for the control group was 10 days while that for the heparin treated group was 24 days.
# FIG. 2. Treatment with N-desulfated, N-acetylated heparin (10 mg/kg) prevents rejection of skin allografts. Mice were grafted as described for FIG. 1 and treated daily with saline (squares) or N-desulfated, N-acetylated heparin (10 mg/kg; diamonds). The median survival of the skin allograft in the control group was 10 days while that in the treated group was 20 days.
# The median survival time of the skin grafts on control mice treated with saline was […] while that on mice treated with 0.05 mg/kg daily of heparin was 26 days with maximal survival to 32 days.
# adjuvant arthritis [4] = experiment: Adjuvant arthritis induced with M. tuberculosis; format: in vivo, Lewis rats; details: for Adjuvant arthritis maximum clinical score: scale 0-16
# heparanase [5] = experiment: Inhibition of T lymphocyte heparanase activity (degradation of 35S-labeled heparan sulfate of extracellular matrix); format: biochemical; details: medium of activated T lymphocytes, 35S-labeled extracellular matrix, various concentrations
# Description: Heparanase activity was induced into the extracellular medium bathing activated T lymphocytes and tested by incubating the medium with extracellular matrix whose heparan sulfate was labeled with ^35 S as described (Naparstek, Y., Cohen, I. R., Fuks, Z. and I. Vlodavsky. Activated T lymphocytes produce a matrix-degrading heparan sulphate endoglycosidase. Nature 310:241 (1984)). Inhibition of heparanase activity was tested by adding various concentrations of heparin or modified heparins to the reaction mixture and measuring the effect on degradation of the labeled heparin-sulfate as described (Naparstek, Y., Cohen, I. R., Fuks, Z. and I. Vlodavsky.
# Activated T lymphocytes produce a matrix-degrading heparan sulphate endoglycosidase, Nature 310:241 (1984)). Totally desulfated heparin and N-desulfated, N-acetylated heparin was prepared as described. (Ayotte, L., A. S. Perlin. NMR spectroscopic observations related to the function of sulfate groups in heparin. Calcium binding vs. biological activity. Carbohydrate Res. 145:267 (1986)).
# [6] = 0.001 mg s.c. once daily for 5 days from day 9
# [7] = 0.005 mg s.c. once daily for 5 days from day 9
# [8] = 0.01 mg s.c. once daily for 5 days from day 9
# [9] = 0.02 mg s.c. once daily for 5 days from day 9
substance,measurement,setting,value
heparin,"Accumulation of 51Cr I-LNC in OX challenged ears (cpm/ear, FIG. 6 right)",DTH reaction; 5 μg per injection,decreased cpm
same,DTH ear swelling (FIG. 6 left),DTH reaction; 5 μg per injection,decreased ear swelling
same,"Accumulation of 51Cr I-LNC in OX challenged ears (cpm/ear, FIG. 6 right)",DTH reaction; 20 μg per injection,did not inhibit
same,DTH ear swelling (FIG. 6 left),DTH reaction; 20 μg per injection,did not inhibit
same,Early renal allograft function and graft survival,renal allograft,no effect on early graft function or graft survival
same,Heparanase activity of I-LNC (FIG. 7),heparanase [1],lacked heparanase activity
same,Severity of rat adjuvant arthritis,adjuvant arthritis [2],enhanced the severity of the rat adjuvant arthritis
same,Emigration of lymphocytes from the circulation,lymphocytes,inhibit the emigration of lymphocytes from the circulation
same,Partial thromboplastin time,[3],no change in the partial thromboplastin time
same,Maximal survival of skin allograft,skin allografts,32 days
same,Adjuvant arthritis duration,adjuvant arthritis [4]; [6],20 days
same,Adjuvant arthritis maximum clinical score,adjuvant arthritis [4]; [6],6
same,Adjuvant arthritis duration,adjuvant arthritis [4]; [7],16 days
same,Adjuvant arthritis maximum clinical score,adjuvant arthritis [4]; [7],4
same,Adjuvant arthritis duration,adjuvant arthritis [4]; [8],15 days
same,Adjuvant arthritis maximum clinical score,adjuvant arthritis [4]; [8],5
same,Adjuvant arthritis duration,adjuvant arthritis [4]; [9],8 days
same,Adjuvant arthritis maximum clinical score,adjuvant arthritis [4]; [9],2
same,Adjuvant arthritis duration,"adjuvant arthritis [4]; 0.04 mg s.c. once daily for 5 days from day 9, dose 0: >20",> 20 days
same,Adjuvant arthritis maximum clinical score,"adjuvant arthritis [4]; 0.04 mg s.c. once daily for 5 days from day 9, dose 0: 10",10
same,Inhibition of arthritis,"adjuvant arthritis [4]; rat, in vivo",yes
same,Arthritis score (day 60),"adjuvant arthritis [4]; rat, in vivo, sc",0
same,Inhibition of degradation of heparan sulfate by heparanase,heparanase [5],yes
